{
  "source": "patent US20160067232A1",
  "about": "“METHODS FOR TREATING A STROKE-RELATED SENSORIMOTOR IMPAIRMENT USING AMINOPYRIDINES” (Acorda Therapeutics, Inc., priority 2011, published 2016)",
  "key": {"[1]": {"test_system": "rats with middle cerebral artery occlusion (MCAO)", "experiment": "Hindlimb placing test, MCAO rats, double crossover study (Example 2)", "type": "in vivo, Sprague Dawley rat", "design": "Hindlimb Placing Total Score, individual animals / Hindlimb Placing Total Score, Mean: scale not given here", "settings": "for Hindlimb Placing Total Score, individual animals: one value per rat; for Hindlimb Placing Total Score, Mean: N 15", "experimental": "4-AP was evaluated for its ability to promote functional sensorimotor improvement following ischemic stroke in rats with stable motor deficits at times remote from their ischemic events. The animal model mimics the conditions in human ischemic stroke and is produced by middle cerebral artery occlusion (MCAO), which results in extensive infarction in cerebral cortex and striatum, including the cortical spinal tract (white matter).\nIn particular, the MCAO model in Sprague Dawley rats that was utilized in the experiments presented below mimics the conditions in human ischemic stroke. In this model, focal cerebral infarcts were made by permanent occlusion of the proximal right middle cerebral artery (MCA) using a modification of the method of Tamura et al. (No To Shinkei 1986; 38:747-51). Briefly, the temporalis muscle was bisected and reflected through an incision made midway between the eye and the ear canal. The proximal MCA was exposed through a subtemporal craniectomy without removing the zygomatic arch and without transecting the facial nerve.\nDosing and Treatment: Rats were treated in accordance with the dosing schedule shown in Tables 2A, 2B, 3 and FIG. 2, with each Phase being a two week period of time. A solution of 4-AP was used in this experiment. Dosing was started at 4 weeks after ischemic event. 4-aminopyridine was dissolved in water for injection (WFI, Cellgro) and sterile filtered. Final concentrations of 0.315 mg/mL or 1.0 mg/mL of 4-aminopyridine were delivered at 2 mL/kg by gastric gavage, resulting in final doses of 0.63 mg/kg and 2 mg/kg respectively. Vehicle control treatment was WFI delivered at 2 mL/kg by gastric gavage. This study was divided into three treatment phases (1-3) with each randomized cohort of animals receiving a different dose level during each of the treatment phases. Starting on day 30 after MCAO (Day 30, start of phase 1), the animals received gavage dosing of solutions (2 mL/kg) approximately 12 hours apart, for a total of five doses. The same schedule was repeated with different treatment on Day 44 and Day 58 for phase 2 and 3 of the study, respectively. Animals were not treated during the 10 days between phases (washout period).\nTreatment groups: Dosing was started 4 weeks after MCAO surgery. During these 4 weeks, weekly behavioral assessments, as defined below, were performed. Two dose levels of 4-AP plus vehicle control were assessed, with treatment starting at 4 weeks after ischemic event. All dosing was via gastric gavage, volume not to exceed 2 mL/kg. Animals were given the first dose and behavioral assessments were performed starting 60 minutes after dosing. Animals then received the second dose that day at the appropriate time and b.i.d (preferably every 12 hours) thereafter for 2 more days (3 total days of dosing, 5 total doses). One hour after the 5th dose, animals were subjected to behavioral assessments as defined below. Following the final behavioral assessment, drug was withdrawn for 10 or 11 days, behavior was re-assessed, and then animals were re-challenged with a cross-over treatment (Phase 2 of Table 2B) as described in Tables 2A, 2B and 3, followed by the same behavioral testing and dosing regimen. This cross-over was repeated one more time as well (Phase 3 of Table 2B) (see FIG. 2).\nBehavioral test details: Behavioral evaluations were done by evaluators blinded to treatment assignment. Blinded assessments of sensorimotor function were performed just prior to MCAO surgery, 24 hours after MCAO surgery and weekly thereafter until the first phase of dosing using limb placing and body swing behavioral tests. As described above, behavioral assessments were timed exactly with dosing times. Animals were tested one hour after the 1st and 5th doses of each phase (i.e., Days 30 and 32 of the first phase, Days 44 and 46 of the second phase; and Days 58 and 60 of the third phase); animals were also tested during the washout periods on Days 42 and 56. […]"}, "[2]": {"test_system": "rats with middle cerebral artery occlusion (MCAO)", "experiment": "Cylinder test, total movement, MCAO rats (Example 2)", "type": "in vivo, Sprague Dawley rat", "settings": "individual animals and Mean (N=15), listed as 4-AP", "experimental": "Dosing and Treatment: Rats were treated in accordance with the dosing schedule shown in Tables 2A, 2B, 3 and FIG. 2, with each Phase being a two week period of time. A solution of 4-AP was used in this experiment. Dosing was started at 4 weeks after ischemic event. 4-aminopyridine was dissolved in water for injection (WFI, Cellgro) and sterile filtered. […] Vehicle control treatment was WFI delivered at 2 mL/kg by gastric gavage. […] Starting on day 30 after MCAO (Day 30, start of phase 1), the animals received gavage dosing of solutions (2 mL/kg) approximately 12 hours apart, for a total of five doses. The same schedule was repeated with different treatment on Day 44 and Day 58 for phase 2 and 3 of the study, respectively. Animals were not treated during the 10 days between phases (washout period). Treatment groups: Dosing was started 4 weeks after MCAO surgery. During these 4 weeks, weekly behavioral assessments, as defined below, were performed. Two dose levels of 4-AP plus vehicle control were assessed, with treatment starting at 4 weeks after ischemic event. […] Animals were given the first dose and behavioral assessments were performed starting 60 minutes after dosing. Animals then received the second dose that day at the appropriate time and b.i.d (preferably every 12 hours) thereafter for 2 more days (3 total days of dosing, 5 total doses). One hour after the 5th dose, animals were subjected to behavioral assessments as defined below. Following the final behavioral assessment, drug was withdrawn for 10 or 11 days, behavior was re-assessed, and then animals were re-challenged with a cross-over treatment (Phase 2 of Table 2B) as described in Tables 2A, 2B and 3, followed by the same behavioral testing and dosing regimen. This cross-over was repeated one more time as well (Phase 3 of Table 2B) (see FIG. 2). Cylinder Test: Evaluation was performed at Day −1 (pre-operation), Day 7, Day 21, Day 30, Day 32, Day 44, Day 46, Day 58, Day 60. This test assessed limb use asymmetry. Rats were placed in a transparent cylinder (20 cm in diameter and 30 cm in height) for 3-6 minutes. A mirror was placed behind the cylinder to determine forelimb movements when animal was turned away from the camera. […] Simultaneous use of both left and right forelimbs while contacting the wall during a full rear was also scored. A total number of 20 forelimb placings were counted during a trial. Data was expressed in terms of percent use of the non-impaired and or impaired forelimb relative to the total number of limb use observations for wall movements."}, "[3]": {"settings": "Group 3 (sequence vhl), D44 after MCAO, phase 2, high dose"}, "[4]": {"settings": "Group 3 (sequence vhl), D46 after MCAO, phase 2, high dose"}, "[5]": {"settings": "Group 3 (sequence vhl), D58 after MCAO, phase 3, low dose"}, "[6]": {"settings": "Group 3 (sequence vhl), D60 after MCAO, phase 3, low dose"}},
  "note": "Where “and” joins values, the source holds several entries; their conditions need not be identical. Identical values can stand only once.",
  "data": [
    {"smiles": "Nc1ccncc1", "note": "[4-aminopyridine]", "values": [
      {"measurement": "Hindlimb function, low dose compared to vehicle", "setting": "[1]; 0.63 mg/kg b.i.d. p.o., first mixed model, p=0.0027", "value": "significantly improved the hindlimb function"},
      {"measurement": "Hindlimb function, high dose compared to vehicle", "setting": "[1]; 2 mg/kg b.i.d. p.o., first mixed model, p<0.0001", "value": "significantly improved the hindlimb function"},
      {"measurement": "Hindlimb Placing Total Score, individual animals", "setting": "[1]; Group 2 (sequence lvh), D30 after MCAO, phase 1, low dose", "value": "2.50 and 1.50 (6×) and 2.00 (5×) and 1.00 and 0.50 and 3.00"},
      {"measurement": "Hindlimb Placing Total Score, individual animals", "setting": "[1]; Group 2 (sequence lvh), D32 after MCAO, phase 1, low dose", "value": "2.00 (2×) and 1.00 (4×) and 1.50 (8×) and 0.50"},
      {"measurement": "Hindlimb Placing Total Score, individual animals", "setting": "[1]; Group 2 (sequence lvh), D58 after MCAO, phase 3, high dose", "value": "2.00 (2×) and 0.00 (5×) and 1.00 and 1.50 (4×) and 0.50 (3×)"},
      {"measurement": "Hindlimb Placing Total Score, individual animals", "setting": "[1]; Group 2 (sequence lvh), D60 after MCAO, phase 3, high dose", "value": "0.50 (5×) and 0.00 (9×) and 1.00"},
      {"measurement": "Hindlimb Placing Total Score, Mean", "setting": "[1]; [3]", "value": 0.90},
      {"measurement": "Hindlimb Placing Total Score, individual animals", "setting": "[1]; [3]", "value": "2.00 (2×) and 0.00 (3×) and 1.50 and 1.00 (2×) and 0.50 (2×)"},
      {"measurement": "Hindlimb Placing Total Score, Mean", "setting": "[1]; [4]", "value": 0.30},
      {"measurement": "Hindlimb Placing Total Score, individual animals", "setting": "[1]; [4]", "value": "1.00 and 0.00 (6×) and 0.50 (3×)"},
      {"measurement": "Hindlimb Placing Total Score, Mean", "setting": "[1]; [5]", "value": 0.80},
      {"measurement": "Hindlimb Placing Total Score, individual animals", "setting": "[1]; [5]", "value": "1.50 and 0.50 (3×) and 1.00 (3×) and 3.00 and 0.00 (2×)"},
      {"measurement": "Hindlimb Placing Total Score, Mean", "setting": "[1]; [6]", "value": 0.70},
      {"measurement": "Hindlimb Placing Total Score, individual animals", "setting": "[1]; [6]", "value": "1.50 and 1.00 (3×) and 0.50 (2×) and 2.00 and 0.00 (3×)"},
      {"measurement": "Effect on hindlimb function (FIGS. 4A-D)", "setting": "[1]; low or high dose, 4 weeks post ischemic brain injury, dose responsive, reversible", "value": "effective to improve hindlimb function"},
      {"measurement": "Cylinder Test (Total Movement) Group 1, D30", "setting": "[2]; Group 1, D30, treatment phase 1 (high-dose 4-AP)", "value": "0.00 (5×) and 75.00 and 2.00 and 10.00 (2×) and 6.00 and 13.00 and 12.00 and 4.00 and 5.00 (2×)"},
      {"measurement": "Cylinder Test (Total Movement) Group 1, D32", "setting": "[2]; Group 1, D32, treatment phase 1 (high-dose 4-AP)", "value": "11.00 and 54.00 and 22.00 and 39.00 and 10.00 and 8.00 and 14.00 and 15.00 and 0.00 (2×) and 38.00 and 2.00 and 1.00 and 6.00 and 23.00"},
      {"measurement": "Cylinder Test (Total Movement) Group 1, D44", "setting": "[2]; Group 1, D44, treatment phase 2 (low-dose 4-AP)", "value": "28.00 and 93.00 and 48.00 and 57.00 and 47.00 and 9.00 and 11.00 and 5.00 and 66.00 and 25.00 and 6.00 and 43.00 and 20.00 and 7.00"},
      {"measurement": "Cylinder Test (Total Movement) Group 1, D46", "setting": "[2]; Group 1, D46, treatment phase 2 (low-dose 4-AP)", "value": "11.00 and 47.00 and 43.00 and 48.00 and 46.00 and 12.00 and 63.00 and 4.00 and 0.00 (2×) and 13.00 and 2.00 and 6.00 and 39.00 and 24.00"}
    ]}
  ]
}
